# BindingDB's records for doi:10.1021/acs.biochem.6b00786 (University of California Irvine, 2016)
# pIC50: −log10 of the molar value.
# Tests used:
# [1] = biological target: Nitric oxide synthase oxygenase [E25A,E26A,E316A] (Bacillus subtilis, UniProt O34453, E25A/E26A/E316A); assay: bBiDomain assay
# Method: (§1) Reactions were carried out using the buffered solution reported for the three-component reaction. The bBiDomain reactions included 100 nm bBiDomain and either YumC or FLDR at 1 μm; except for reactions in which YumC concentrations were varied. For inhibition assays, inhibitors were added at 30 μm. Similar to the three-component reaction, bBiDomain reactions were initiated with NADPH at a final concentration of 400 μm, quenched by thermal denaturation, and analyzed by Griess reaction.
# [2] = biological target: Nitric oxide synthase oxygenase [E25A,E26A,I218V,E316A] (Bacillus subtilis, UniProt O34453, E25A/E26A/E316A/I218V); assay: bBiDomain assay
# Method: as §1
compound,measurement,setting,value
Cc1cc(N)nc2ccccc12,pIC50,[1],4.44
same,pIC50,[2],4.27
